Measured values reported in paper PMC12207590, “Substrate Specificity of the Organic Cation Transporters MATE1 and MATE2K and Functional Overlap with OCT1 and OCT2” (Journal of Medicinal Chemistry, 2025).
Read-outs that look alike come from different tables or passages of the source.

Key:
[1] = biological target: T1, MATE1 (Homo sapiens, UniProt Q96FL8); assay: Uptake ratio in MATE1-overexpressing HEK293 cells vs empty vector (2.5 μM, 1 min, HPLC-MS/MS); type: cell-based; design: key to MATE1 substrate*: 1 = substrate; 0 = no substrate; conditions: for MATE1 substrate*: Table S4; for MATE1: uptake ratio MATE1-overexpressing vs empty-vector HEK293 cells, mean
T1 sequence (Q96FL8 1-570): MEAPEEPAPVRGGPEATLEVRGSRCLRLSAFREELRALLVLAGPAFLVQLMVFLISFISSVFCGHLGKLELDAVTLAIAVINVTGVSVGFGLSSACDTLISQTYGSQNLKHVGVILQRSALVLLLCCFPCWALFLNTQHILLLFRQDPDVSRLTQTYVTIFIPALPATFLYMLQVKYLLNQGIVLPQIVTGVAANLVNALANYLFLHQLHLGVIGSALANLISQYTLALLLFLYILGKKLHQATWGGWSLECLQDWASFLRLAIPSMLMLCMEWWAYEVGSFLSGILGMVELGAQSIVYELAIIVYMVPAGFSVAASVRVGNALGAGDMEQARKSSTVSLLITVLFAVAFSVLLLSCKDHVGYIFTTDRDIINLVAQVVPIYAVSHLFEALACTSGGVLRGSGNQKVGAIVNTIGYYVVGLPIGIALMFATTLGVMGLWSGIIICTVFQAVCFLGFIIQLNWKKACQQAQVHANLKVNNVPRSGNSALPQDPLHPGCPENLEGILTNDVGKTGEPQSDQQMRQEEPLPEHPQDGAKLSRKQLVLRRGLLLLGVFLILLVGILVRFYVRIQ

[2] = biological target: T2, MATE2K (Homo sapiens, UniProt Q86VL8); assay: Uptake ratio in MATE2K-overexpressing HEK293 cells vs empty vector (2.5 μM, 1 min, HPLC-MS/MS); type: cell-based; design: key to MATE2 substrate*: 1 = substrate; 0 = no substrate; conditions: for MATE2 substrate*: Table S4; for MATE2: uptake ratio MATE2K-overexpressing vs empty-vector HEK293 cells, mean
[3] = human; cited from earlier work
[4] = test system: renal MATE1; conditions: 800 mg cimetidine; cited from earlier work
[5] = biological target: T1, MATE1; conditions: for MATE1 Clint: human, pH 7.4
[6] = biological target: T1, MATE1; assay: in vitro; conditions: other cell line, pH 7.4
[7] = biological target: T2, MATE2K; assay: in vitro; conditions: other cell line, pH 7.4
[8] = biological target: T1, MATE1; assay: Concentration-dependent uptake (Michaelis-Menten) via MATE1 in HEK293 cells
[9] = biological target: T2, MATE2K; assay: Concentration-dependent uptake (Michaelis-Menten) via MATE2K in HEK293 cells; conditions: HEK293, 1 min, net uptake; for Km: read-out: MATE2K KM
[10] = test system: MATE1, MATE2K, OCT1, OCT2; assay: Substrate specificity and overlap among the four transporters (ratio cutoff 2); type: cell-based, human; conditions: transport ratio cutoff of 2
[11] = biological target: T3, OCT1 (Homo sapiens, UniProt O15245); assay: Uptake in OCT1-overexpressing HEK293 cells (substrate yes/no); type: cell-based; design: key: 1 = substrate; 0 = no substrate; conditions: Table S4
T3 sequence (O15245 1-554): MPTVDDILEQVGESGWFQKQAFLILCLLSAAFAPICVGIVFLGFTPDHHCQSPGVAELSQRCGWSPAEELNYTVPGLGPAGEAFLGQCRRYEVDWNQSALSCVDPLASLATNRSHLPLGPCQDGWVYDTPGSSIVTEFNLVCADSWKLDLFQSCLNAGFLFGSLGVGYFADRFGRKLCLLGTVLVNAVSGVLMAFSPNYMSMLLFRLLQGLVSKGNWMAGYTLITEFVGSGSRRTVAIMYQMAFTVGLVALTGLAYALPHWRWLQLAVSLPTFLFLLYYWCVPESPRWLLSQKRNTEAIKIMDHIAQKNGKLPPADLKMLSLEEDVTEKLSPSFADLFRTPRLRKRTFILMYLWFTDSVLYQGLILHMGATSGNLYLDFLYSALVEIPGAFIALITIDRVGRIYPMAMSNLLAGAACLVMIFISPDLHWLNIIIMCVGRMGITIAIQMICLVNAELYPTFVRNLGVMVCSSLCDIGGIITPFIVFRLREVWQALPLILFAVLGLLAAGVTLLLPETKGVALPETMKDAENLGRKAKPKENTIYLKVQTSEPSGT
Protocol: (§1) The cell lines were generated using the recombinant site-specific Flp-In^TM system as previously described. , All cell lines used in the transport experiments were cultured at 37 °C and 5% CO2 with Dulbecco’s Modified Eagle’s Medium (DMEM) supplemented with 10% (v/v) FBS and the antibiotics penicillin (100 U/mL) and streptomycin (100 μg/mL).

[12] = biological target: T4, OCT2 (Homo sapiens, UniProt O15244); assay: Uptake in OCT2-overexpressing HEK293 cells (substrate yes/no); type: cell-based; design: key: 1 = substrate; 0 = no substrate; conditions: Table S4
T4 sequence (O15244 1-555): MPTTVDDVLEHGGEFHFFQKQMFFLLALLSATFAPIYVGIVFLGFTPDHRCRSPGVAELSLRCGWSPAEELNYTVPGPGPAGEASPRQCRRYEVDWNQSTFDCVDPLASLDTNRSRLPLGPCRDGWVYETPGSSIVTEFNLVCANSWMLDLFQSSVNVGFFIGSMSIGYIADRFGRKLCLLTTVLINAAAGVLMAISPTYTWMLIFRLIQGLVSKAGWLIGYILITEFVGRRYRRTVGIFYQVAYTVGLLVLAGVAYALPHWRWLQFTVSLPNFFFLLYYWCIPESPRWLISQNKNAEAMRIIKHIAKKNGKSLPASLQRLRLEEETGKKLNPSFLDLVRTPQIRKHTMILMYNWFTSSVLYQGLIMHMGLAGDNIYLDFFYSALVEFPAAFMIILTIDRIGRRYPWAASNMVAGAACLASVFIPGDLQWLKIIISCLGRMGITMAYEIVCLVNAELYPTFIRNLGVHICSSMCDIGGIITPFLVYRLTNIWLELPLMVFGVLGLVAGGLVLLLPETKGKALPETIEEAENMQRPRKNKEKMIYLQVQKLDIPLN
Protocol: as §1

[13] = fold uptake over empty vector, 2.5 μM, 1 min

T2 sequence (Q86VL8 1-566 isoform Q86VL8-3): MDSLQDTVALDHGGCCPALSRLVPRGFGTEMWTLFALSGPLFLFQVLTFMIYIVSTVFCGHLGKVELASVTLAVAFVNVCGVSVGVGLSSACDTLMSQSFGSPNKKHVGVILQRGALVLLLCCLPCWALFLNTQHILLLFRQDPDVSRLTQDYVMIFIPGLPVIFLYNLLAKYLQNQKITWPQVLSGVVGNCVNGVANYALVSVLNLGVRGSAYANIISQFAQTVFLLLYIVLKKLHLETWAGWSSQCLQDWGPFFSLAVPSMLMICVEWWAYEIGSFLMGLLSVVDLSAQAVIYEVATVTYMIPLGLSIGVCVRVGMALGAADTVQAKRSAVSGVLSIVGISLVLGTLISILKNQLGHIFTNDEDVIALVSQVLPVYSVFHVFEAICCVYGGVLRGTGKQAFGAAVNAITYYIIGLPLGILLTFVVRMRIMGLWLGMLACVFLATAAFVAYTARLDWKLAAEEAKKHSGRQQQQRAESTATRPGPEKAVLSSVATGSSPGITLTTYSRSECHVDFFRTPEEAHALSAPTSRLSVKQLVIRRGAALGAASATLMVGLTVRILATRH

Compound | MATE2K Vmax [9] | Km [9] [µM] | MATE1 substrate* [1] | MATE1 ([1]; 2.5 μM, 1 min) | MATE2 substrate* [2] | MATE2 ([2]; 2.5 μM, 1 min) | OCT1 substrate* [11] | OCT2 substrate* [12] | MATE1 Vmax ([8]; HEK293, 1 min, net uptake) | other results
CN/C(=N\CCSCc1nc[nH]c1C)NC#N [Cimetidine] | – | – | – | – | – | – | – | – | – | MATE1 ratio in this study ([1]; Table S1, 2.5 μM, 1 min): 11.52; MATE1 ratio [1, 13]: 11.52; MATE1 ratio ([1]; fold uptake over empty vector, 2.5 μM, 1 min, listed as cimetidine): above 2; MATE1 (uptake ratio) ([1]; mean ratio of uptake in MATE1-overexpressing HEK293 cells vs empty vector, 2.5 μM, 1 min): 11.52; MATE2K ratio in this study ([2]; Table S1, 2.5 μM, 1 min): 3.60; MATE2K ratio [2, 13]: 3.60; MATE2 (uptake ratio) ([2]; mean ratio of uptake in MATE2K-overexpressing HEK293 cells vs empty vector, 2.5 μM, 1 min): 3.6; eliminated unchanged via the kidneys [3]: more than 70%; inhibition of metformin elimination [4]: approximately 43%
c1c2c(cc3c1OCO3)-c1cc3ccc4c(c3c[n+]1CC2)OCO4 [Coptisine] | 246 pmol × mg protein^–1 × min^–1 | 1.88 | – | – | – | – | – | – | – | MATE1 ratio [1]: 9.90; MATE2K ratio [2]: 6.48; Km [5]: 20 µM; MATE1 Clint [5]: 145 μL × mg protein^–1 × min^–1; microsomal CLint [6]: 145 µL/min/mg; microsomal CLint [7]: 131 µL/min/mg; MATE1 Vmax [8]: 2901 pmol × mg protein^–1 × min^–1
CN(C)C(=O)Oc1cccc([N+](C)(C)C)c1 [Neostigmine] | 3139 pmol × mg protein^–1 × min^–1 | 385 | – | – | – | – | – | – | – | MATE1 ratio [1]: 32.31; MATE2K ratio [2]: 5.31; Substrate specificity among MATE1, MATE2K, OCT1, OCT2 [10]: All four transporters; Km [5]: 160 µM; MATE1 Clint [5]: 45.2 μL × mg protein^–1 × min^–1; MATE1 Vmax [8]: 7255 pmol × mg protein^–1 × min^–1
O=C1Cc2cc(CCN3CCN(c4nsc5ccccc45)CC3)c(Cl)cc2N1 [Ziprasidone] | – | – | 0 | 1.2 | 0 | 1.25 | 0 | 0 | – | –
CN(C)CCc1c[nH]c2ccc(C[C@H]3COC(=O)N3)cc12 [Zolmitriptan (R), Zolmitriptan] | – | – | 1 | 12.88 | 1 | 6.48 | 1 | 1 | 2624 pmol × mg protein^–1 × min^–1 | –
CN(C)CCc1c[nH]c2ccc(C[C@H]3COC(=O)N3)cc12 [Zolmitriptan (S), Zolmitriptan] | 1662 pmol × mg protein^–1 × min^–1 | 94.5 | 1 | 13.34 | 1 | 5.38 | 1 | 0 | 2849 pmol × mg protein^–1 × min^–1 | –
CN(C)CCc1c[nH]c2ccc(C[C@H]3COC(=O)N3)cc12 [Zolmitriptan] | – | – | 1 | 11.83 | 1 | 5.51 | 1 | 0 | 2992 pmol × mg protein^–1 × min^–1 | –
CN(C)CCOC1=Cc2ccccc2Sc2ccc(Cl)cc21 [Zotepin] | – | – | 0 | 0.51 | 0 | 1.34 | 0 | – | – | –
